Values of other authors as cited in US12678479B2, “Pharmaceutical compositions comprising teixobactin” (priority 2018, dated 2026).

Test system: MRSA ATCC 33591
Conditions: comparison value

## CN[C@H](CC(C)C)C(=O)N[C@H]1C(=O)N[C@@H](CC(N)=O)C(=O)N[C@H]2C(=O)N[C@H]3C(=O)N[C@H](C(=O)N[C@H](C(=O)O)c4cc(O)cc(O)c4-c4cc3ccc4O)[C@H](O[C@H]3C[C@](C)(N)[C@@H](O)[C@H](C)O3)c3ccc(c(Cl)c3)Oc3cc2cc(c3O[C@@H]2O[C@H](CO)[C@@H](O)[C@H](O)[C@H]2O[C@H]2C[C@](C)(NCc3ccc(-c4ccc(Cl)cc4)cc3)[C@@H](O)[C@H](C)O2)Oc2ccc(cc2Cl)[C@H]1O [Orbactiv, oritavancin]
  effective dose: 4 to 5 mg/kg
